Results from patent US20020165267A1 (priority 2001, published 2002).

Key:
[1] = test system: Bacillus thuringiensis ATCC55055; Bacillus subtilis 1270; test: Agar diffusion test, clear zones of growth inhibition around wells; assay type: cell-based; settings: Phloxine B 100 μg/ml; 50 μl per well; 37° C., 16 hours
Procedure: Sensitivity of bacteria to the commercially available Phloxine B measured by agar diffusion test. Principle of this microbiological assay: The bacteria were grown on Brain Heart Infusion (BHI) broth. Growth was analyzed by measuring turbidity with a spectrophotometer. During the logarithmic phase (OD of 0 3 at 600 nm), 200 μl of the bacterial culture was spread over the surface of an agar plate with a bent glass rod. Fifty μl of various concentrations of Phloxine B (200, 100, 50, 25, and 12.5 μg/ml diluted in the BHI broth) were added to the wells. The plate was then transferred to an incubator at 37° C. the appearance of clear zones around the wells after 16 hours, indicating inhibition of bacterial growth, was noted.

[2] = humans; set by the FDA; cited from earlier work
[3] = test system: B. mycoides, B. thuringiensis, and B. subtilis; assay type: cell-based

Substance: 2′,4′,5′,7′-tetrachlorofluorecein disodium salt [Phloxine B]
- size of clear zones compared with chloramphenicol [1]: half the inhibition zones observed with chloramphenicol at 200 μg/ml
- acceptable daily intake (ADI) [2]: 1.25 mg/kg
- reduction of the number of Colony-Forming Units ([3]; 100 μg/ml, printed also as factor of 100): more than two logs
- inhibition of bacterial growth ([3]; 100, 75, 50, 25 μg/ml added in logarithmic growth phase, BHI broth): dose-dependent manner
- antibiotic activity on bacteria ([3]; B. mycoides, B. thuringiensis, B. subtilis): very good antibiotic activity
- decrease of bacterial count ([3]; dye added at 100 μg/ml, in minutes): 3 logs
